Test results: patent publication US8124655B2, “Use of LR-90 and LR-102 to overcome insulin resistance” (City of Hope, priority 2007, dated 2012)

Experiments:
[1] = system: Zucker diabetic fatty (ZDF) rat; assay: Metabolic parameters of ZDF rats treated with LR-90 (Example 1); assay type: in vivo
Procedure: As noted, previous studies have shown that LR-90, a new inhibitor of AGE formation, prevented the development of experimental type 1 diabetic nephropathy. In the present Example, the effects of LR-90 were examined in the Zucker diabetic fatty (ZDF) rat, a model of type 2 diabetes and metabolic syndrome, and the mechanisms by which it may protect against renal injury were investigated. In this Example, male ZDF rats were treated without or with LR-90 from age 13 to 40 weeks. Metabolic and kidney functions and renal histology were evaluated. AGE accumulation and the production of the receptor for AGE (AGER) were measured. Profibrotic growth factors, extracellular matrix proteins and intracellular signalling pathways associated with glomerular and tubular damage were also analysed. […] RenalAGE, AGER and lipid peroxidation were all attenuated by LR-90. […] This was associated with reduction in glomerulosclerosis and tubulointerstitial fibrosis, concomitant with marked inhibition of renal overproduction of TGF-β1, connective tissue growth factor, fibronectin and collagen IV.
All animal studies were carried out in compliance with policies outlined in The Guide for the Care and Handling of Laboratory Animals (NIH Publication No. 85-23) that have been approved by the City of Hope Animal Care Committee. Male ZDF (fa/fa) and male Zucker lean (+/+; ZL) rats were obtained at the age of 5 weeks from Charles River Laboratories (Wilmington, Mass., USA). Animals were maintained with free access to Purina 5008 rat chow (Purina Mills, St Louis, Mo., USA) and tap water. All animals were individually housed in a controlled room with a 12 h dark-light cycle. At the age of 13 weeks, the animals were divided into the following groups: (1) ZL rats (n=6); (2) ZDF rats without treatment (n=6); and (3) ZDF rats treated with LR-90 at 50 mg/l in their drinking water (ZDF90, n=6). The dose of LR-90 was chosen after previous experiments with type 1 diabetic nephropathy. Food, water intake, body weight and blood glucose levels were monitored periodically. Systolic blood pressure was measured by tail-cuff plethysmography (CODA2 Blood Pressure System; Kent Scientific, Torrington, Conn., USA). Animals were killed at the age of 40 weeks by over-anaesthetisation with isoflurane and cardiac puncture. Blood samples were collected from each animal and transferred accordingly into heparinised vacutainer tubes; they were later centrifuged (1,500×g for 10 min at 4° C.) for plasma isolation. The kidneys were removed immediately, rinsed in PBS and weighed, after which specimens were snap-frozen in liquid nitrogen or fixed in 10% (vol./vol.) neutral buffered formalin for further biochemical and histological analyses. Plasma glucose, lipids and Nε-(carboxymethyl)lysine-AGE Plasma glucose was measured using a glucose analyzer (2300 STAT; YSI, Yellowsprings, Ohio, USA). Total plasma triacylglycerol and cholesterol concentrations were quantified using the Vitros 250 Chemistry System (Johnson & Johnson, Rochester, N.Y., USA). Nε-(Carboxymethyl)lysine (CML)-AGE was liberated from plasma proteins by acid hydrolysis and then measured by ion-pair reversed-phase liquid chromatography/tandem mass spectrometry as described previously.

[2] = system: Zucker diabetic fatty (ZDF) rat; assay: Kidney histopathology: PAMS and Masson's trichrome staining; assay type: in vivo; conditions: kidney of ZDF rats, p<0.01 vs ZDF
Text: Kidney sections were stained with periodic acid-Schiff-methenamine silver (PAMS) to evaluate glomerulosclerosis and mesangial matrix expansion; Masson's trichrome staining was used to analyse collagen deposition and cortical tubule degeneration. Glomerulosclerosis was defined as glomerular basement membrane thickening, mesangial hypertrophy and capillary occlusion, and was semiquantitatively evaluated on an arbitrary scale of 0 to 4: grade 0 (normal); grade 1 (sclerotic area less than 25%); grade 2 (sclerotic area 25-50%); grade 3 (sclerotic area 50-75%); and grade 4 (sclerotic area more than 75%). The glomerulosclerotic index was then calculated as described. Briefly, 100 glomeruli were randomly chosen from each rat kidney stained with PAMS and carefully scored for sclerosis by two blinded investigators. This was done in a sequential manner to ensure that the same glomerulus was not graded twice. To quantify for mesangial expansion and ECM accumulation in the mesangial areas, PAMS-positive materials in the mesangial region excluding cellular elements were analysed using an image analyser with a microscope (Olympus AX70; Olympus Optical, Hamburg, Germany) and photographed using a Retiga 2000R CCD camera (Qimaging, Surrey, BC, Canada). Twenty glomeruli, randomly selected from each rat were evaluated by two investigators without knowledge of the origin of the slides. The percentage of PAMS-positive area in each glomerulus was analysed using Image Pro Plus (Media Cybernetics, Silver Spring, Mass., USA). Results were expressed as percentage of areas positive for PAMS staining. To evaluate cortical tubule degeneration and collagen deposition, kidney sections were stained withMasson's trichrome. In each section, six fields of kidney cortex were randomly selected at 100× magnification using an Olympus AX70 microscope, photographed using a Retiga 2000R camera and the images analysed by Image Pro Plus. Blue and red colours indicate collagen and cytoplasm staining, respectively. Degenerate tubules in each field were identified by the absence of cytoplasm and results expressed as number of degenerate tubules per field. For quantitative measurement of collagen deposition, positively stained areas from six random regions in each slide were identified and scored by dividing the positively stained areas by the total tissue area in the same field using the colour separation function of Image Pro Plus. Results were expressed as percentage of area with positive staining.

[3] = system: Zucker diabetic fatty rats (ZDF, fa/fa); assay: Metabolic data of ZDF rats treated with LR-90 or LR-102 (Example 2); assay type: in vivo, rat
Procedure: The present Example presents the results of an investigation of the effects of LR-90, an inhibitor of AGE/ALE formation, in male Zucker diabetic fatty rats (ZDF, fa/fa) fed with Purina 5008 diet until 40 weeks of age, and their hetorozygous lean littermates (ZDF fa/+) as non-hyperglycemic controls. LR-90 at 50 mg/L of drinking water was given to a subgroup of ZDF rats after the rats developed spontaneous diabetes at 13 weeks of age. At 40 weeks of age, and before killing the animals, their weight was measured; HbA1c, plasma glucose, insulin, triglycerides, cholesterol, CRP and urinary albumin and creatinine concentrations were measured. After euthanizing all animals, organs such as the kidneys, eyeballs, liver, heart, aortae and pancreas were dissected and subjected to immunohistochemical staining, RT-PCR, Western blotting and microscopy.

[4] = system: experimental type 1 diabetic nephropathy; conditions: previous studies (24); cited from earlier work
[5] = described in U.S. Pat. No. 6,787,566; cited from earlier work
[6] = ZDF rats, LR-90 50 mg/l in drinking water, at 40 weeks of age, mean ± SEM
[7] = ZDF rats at 40 weeks of age, Mean ± SEM

Compound: CC(C)(Oc1ccc(NC(=O)Nc2ccc(Cc3ccc(NC(=O)Nc4ccc(OC(C)(C)C(=O)O)cc4)c(Cl)c3)cc2Cl)cc1)C(=O)O [LR-90, methylene bis[4,4′-(2-chlorophenylureidophenoxyisobutyric acid)]]
- effect on blood pressure ([1]; ZDF rats, Example 1): modest, but not statistically significant effects
- effect on hyperglycaemia ([1]; ZDF rats, Example 1): modest, but not statistically significant effects
- Plasma Cholesterol [1, 6]: 6.3 ± 0.3 mmol/L
- Plasma Triglycerides [1, 6]: 4.4 ± 0.6 mmol/L
- Plasma glucose [1, 6]: 25.0 ± 2.3 mmol/L
- Mean Systolic BP ([1]; ZDF rats, LR-90 50 mg/l in drinking water, at 40 weeks of age, tail-cuff, mean ± SEM): 144 ± 6 mm Hg
- reduction of plasma cholesterol ([1]; vs untreated ZDF rats, p<0.05): ~30%
- reduction of plasma triacylglycerol ([1]; vs untreated ZDF rats, p<0.05): ~55%
- quantitative scoring for PAMS staining ([2]; FIG. 1c): reduced significantly
- tubular degeneration ([2]; FIG. 1e): reduced significantly
- percentage positive collagen area staining ([2]; FIG. 1f): reduced significantly
- glomerulosclerosis index (GSI) ([2]; FIG. 1d): reduced significantly
- Plasma glucose ([3]; ZDF rats at 40 weeks of age, drug in drinking water, Mean ± SEM): 25 ± 2.3 mM
- Cholesterol [3, 7]: 244 ± 13 mg/dL
- HbA1c [3, 7]: 2.89 ± 0.07%
- Plasma CRP [3, 7]: 0.58 ± 0.09 mg/mL
- Plasma insulin, ELISA [3, 7]: 0.64 ± 0.10 ng/mL
- Plasma insulin, RIA [3, 7]: 0.63 ± 0.04 ng/mL
- Triglycerides [3, 7]: 384 ± 51 mg/dL
- Urinary Albumin [3, 7]: 27.8 ± 4.8 mg/24 h
- effect on hyperglycemia ([3]; ZDF rats, Example 2): no effect
- effect on hyperlipidemia ([3]; ZDF rats, Example 2): significantly reduced
- increase in CRP levels ([3]; ZDF rats, Example 2): attenuated
- development of experimental type 1 diabetic nephropathy [4]: prevented
- breaking AGE-protein cross-links [5]: active
